Experimental data taken from patent US20230102590A1, “USE OF POLYETHER COMPOUND” (Senju Pharmaceutical Co., Ltd., priority 2020, published 2023).
Where two headings read alike, the source gives them in different places.

How the values were obtained:
[1] = Basic solubility at 25° C. in ethanol, PEG 400, propylene glycol (PG) and buffer solution; solubility ratio non-aqueous solvent / buffer solution
Description: In this regard, the buffer solution had the following composition: • 0.2% sodium hydrogen phosphate hydrate • 0.3% sodium dihydrogen phosphate hydrate • sodium hydroxide and hydrochloric acid (suitable amount was added to adjust the pH to 7.0; however, pH was adjusted to 7.4 for cabozantinib and telmisartan).
However, the following composition was used for rebamipide instead: • 0.05% sodium hydrogen phosphate hydrate • 0.45% sodium dihydrogen phosphate hydrate • sodium hydroxide and hydrochloric acid (suitable amount was added to adjust the pH to 6.0).
Each compound was measured in the same manner described above. In the Table, the molecular weight and Log P values are reference values (or values calculated from reference values).

[2] = reference values; pH upon measurement: rebamipide pH 7.0, telmisartan pH 7.4, cilostazol pH 7.0, aprepitant pH 7, cabozantinib pH 7.4; cited from earlier work
[3] = Description: Fujifilm Wako Pure Chemical
The poorly soluble compound content in the recovered filtrate was measured by liquid chromatography specified below (Shimadzu (Kyoto), high performance liquid chromatograph Prominence).
As the standard product of triamcinolone acetonide, a reagent from the Pharmaceutical and Medical Device Regulatory Science Society of Japan (Japan) was used. • 50 μL of sample solution and standard solution was measured by liquid chromatography under the following conditions.
Column temperature: constant temperature of about 40° C. Mobile phase A: 0.1% trifluoroacetic acid/10% acetonitrile solution Mobile phase B: 0.1% trifluoroacetic acid/90% acetonitrile solution Delivery of mobile phase: the ratio of mixture of mobile phase A and mobile phase B was changed as follows to control the linear concentration gradient.
Detergent: 50% acetonitrile solution Flow rate: 1.0 mL/min Temperature within autosampler: 5° C.
The following conditions were tested as additives to a poorly soluble compound
wherein SA+B=solubility of a poorly soluble compound in a composition comprising poloxamer 407 and PEG 4000 SB=solubility of a poorly soluble compound in a composition comprising PEG 4000, but not poloxamer 407 SA=solubility of a poorly soluble compound in a composition comprising poloxamer 407, but not PEG 4000 S0=solubility of a poorly soluble compound in a composition that comprises neither poloxamer 407 nor PEG 4000.
The solubility in a composition of PEG and poloxamer was measured in the same manner described above for additional compounds.
For cabozantinib and telmisartan, the pH of the aqueous solution with the base composition described above was changed to 7.4. For rebamipide, the aqueous solution with the base composition was as follow. • 0.05% sodium hydrogen phosphate hydrate • 0.45% sodium dihydrogen phosphate hydrate • sodium hydroxide and hydrochloric acid (suitable amount was added to adjust the pH to 6.0)
Additional compounds were measured in the same manner described above.
Cabozantinib and telmisartan were tested with a solution adjusted to a pH of 7.4. Rebamipide was tested with a solution adjusted to a pH of 6.0. Other compounds were tested with a solution adjusted to a pH of 7.0.

[4] = Stability test: change in pH of poloxamer and/or polyethylene glycol solutions stored at 60° C. for four weeks; settings: for concentration of additive able to stabilize PEG 4000 / concentration of additive able to stabilize poloxamer 407 / stabilization of poloxamer 407 or PEG 4000 by the additive alone: pH change
Description: An additional component was added to an aqueous solution comprising poloxamer and/or polyethylene glycol, and the change in the viscosity and pH was measured over time under harsh conditions of 60° C. The following were used as the poloxamer, polyethylene glycol, and buffer. • Poloxamer 407 (Kolliphor P 407, BASF, Germany) • PEG 4000 (Macrogol 4000, NOF, Tokyo) • Buffer: 0.9% boric acid, 0.1% borax
The pH was adjusted with hydrochloric acid or sodium hydroxide. […] A polyethylene eye drop bottle was filled with 5 mL of each filtrate and stored in a 60° C. thermostatic vessel. The pH and viscosity of the test solutions as of preparation and at four weeks after storage were measured. The viscosity was measured using a rotational viscometer (Toki Sangyo (Osaka) Model TVE-25 viscometer type L, 25° C., 100 rpm). The pH as of the preparation was measured in the test solution before transferring to an eye drop bottle for storage.

[5] = type: physicochemical
Description: The solubility of a poorly soluble compound was measured by further adding a water-soluble macromolecule.
DKS Co. Ltd. • SBE-β-CD . . . MedChemExpress LLC • HP-β-CD . . . Fujifilm Wako Pure Chemical

[6] = 25° C., buffer pH 7.0 (pH 7.4 for cabozantinib and telmisartan; pH 6.0 for rebamipide)
[7] = 25° C., phosphate buffer pH 7.0

Row | Compound | Solubility ratio of solvent with respect to buffer solution Ethanol/buffer solution [1, 6] | Solubility ratio of solvent with respect to buffer solution PEG400/buffer solution [1, 6] | Solubility ratio of solvent with respect to buffer solution PG/buffer solution [1, 6] | Solubility scale factor at 5° C. 30% PEG 4000/10% poloxamer 407 [3] | Solubility scale factor at 15° C. 30% PEG 4000/10% poloxamer 407 [3] | Log P [2] | other results
1 | C[C@@H](O[C@H]1OCCN(Cc2n[nH]c(=O)[nH]2)[C@H]1c1ccc(F)cc1)c1cc(C(F)(F)F)cc(C(F)(F)F)c1 [Aprepitant] | 129308.39 | 60601.21 | 43995.44 | 1377.77 | 236.00 | 4.8 ± 0.1 | Solubility, Ethanol [1]: 2.483%
2 | COc1cc2nccc(Oc3ccc(NC(=O)C4(C(=O)Nc5ccc(F)cc5)CC4)cc3)c2cc1OC [Cabozantinib] | 1949439.39 | 25935652.78 | 1213400.25 | 288.38 | 74.57 | 3.92 | –
3 | O=C1CCc2cc(OCCCCc3nnnn3C3CCCCC3)ccc2N1 [Cilostazol] | 761.36 | 1146.93 | 761.23 | 8.97 | 10.22 | 2.76 | Solubility, PEG400 ([1]; 25° C.): 0.4342%
4 | O=C(O)CN(CCN(CC(=O)O)CC(=O)O)CC(=O)O [EDTA, ethylenediaminetetraacetic acid] | – | – | – | – | – | – | stabilization effect on low molecular weight PEG 400 ([4]; 0.1% additive): exhibited a stabilization effect; amount of PEG 4000 that the additive was able to stabilize ([4]; 0.1% additive, four weeks at 60° C.): up to 20%; concentration of additive able to stabilize PEG 4000 ([4]; four weeks at 60° C.): ≥ 0.1%; concentration of additive able to stabilize poloxamer 407 ([4]; four weeks at 60° C.): 0.01%
5 | O=C1Nc2ccc(Cl)cc2[C@@](C#CC2CC2)(C(F)(F)F)O1 [Efavirenz] | – | – | – | – | – | 5.40 | Solubility, PG (propylene glycol) ([1]; 25° C.): 48.3%; Solubility, Buffer solution [1, 7]: 0.0007278%; state of the test composition [3]: converted into gel
6 | OC[C@@H](O)[C@@H](O)[C@H](O)[C@H](O)CO [Mannitol] | – | – | – | – | – | – | stabilization of poloxamer 407 or PEG 4000 by the additive alone ([4]; four weeks at 60° C.): could not stabilize poloxamer 407 or PEG 4000
7 | O=S([O-])([O-])=S.[Na+].[Na+] [Sodium thiosulfate] | – | – | – | – | – | – | concentration of additive able to stabilize PEG 4000 ([4]; four weeks at 60° C.): 0.01%; concentration of additive able to stabilize poloxamer 407 ([4]; four weeks at 60° C.): 0.03%
8 | O=S([O-])S(=O)(=O)[O-].[Na+].[Na+] [sodium pyrosulfite] | – | – | – | – | – | – | stabilization of poloxamer 407 or PEG 4000 by the additive alone ([4]; four weeks at 60° C.): could not stabilize poloxamer 407 or PEG 4000
9 | O=S([O-])[O-].[Na+].[Na+] [sodium sulfite] | – | – | – | – | – | – | stabilization of poloxamer 407 or PEG 4000 by the additive alone ([4]; four weeks at 60° C.): could not stabilize poloxamer 407 or PEG 4000
10 | carboxymethyl cellulose [CMC] | – | – | – | – | – | – | effect of the addition on solubility of celecoxib in PEG/poloxamer composition [5]: improved solubility overall; effect on dissolution of a poorly soluble compound due to poloxamer 407 and PEG 4000 [5]: tendency to further assist dissolution
11 | hydroxypropyl-β-cyclodextrin [HP-β-CD] | – | – | – | – | – | – | effect of the addition on solubility of celecoxib in PEG/poloxamer composition [5]: hardly improved the solubility
12 | sulfobutylether-β-cyclodextrin [SBE-β-CD] | – | – | – | – | – | – | effect of the addition on solubility of celecoxib in PEG/poloxamer composition [5]: improved solubility overall; effect on dissolution of a poorly soluble compound due to poloxamer 407 and PEG 4000 [5]: further improved the dissolution

Now from value to compound, other results behind:

Row | Solubility ratio of solvent with respect to buffer solution Ethanol/buffer solution [1, 6] | Solubility ratio of solvent with respect to buffer solution PEG400/buffer solution [1, 6] | Solubility ratio of solvent with respect to buffer solution PG/buffer solution [1, 6] | Solubility scale factor at 5° C. 30% PEG 4000/10% poloxamer 407 [3] | Solubility scale factor at 15° C. 30% PEG 4000/10% poloxamer 407 [3] | Compound | Log P [2] | other results
13 | 2685.78 | 1803.78 | 2007.24 | 19.75 | 18.27 | CC1(C)O[C@@H]2C[C@H]3[C@@H]4C[C@H](F)C5=CC(=O)C=C[C@]5(C)[C@@]4(F)[C@@H](O)C[C@]3(C)[C@]2(C(=O)CO)O1 [Fluocinolone acetonide] | 2.48 | Solubility, Ethanol ([1]; 25° C.): 4.635%; Solubility, PG (propylene glycol) ([1]; 25° C.): 3.224%
14 | – | – | – | 144.99 | 31.62 | Cc1cn(-c2cc(NC(=O)c3ccc(C)c(Nc4nccc(-c5cccnc5)n4)c3)cc(C(F)(F)F)c2)cn1 [Nilotinib] | – | Solubility ratio of solvent with respect to buffer solution Ethanol/buffer solution [1]: 1623663.73; Solubility ratio of solvent with respect to buffer solution PEG400/buffer solution [1]: 7100339.79; Solubility ratio of solvent with respect to buffer solution PG/buffer solution [1]: 1437221.83
15 | 2.67 | 5.41 | 4.88 | 1.13 | 1.07 | O=C(NC(Cc1cc(=O)[nH]c2ccccc12)C(=O)O)c1ccc(Cl)cc1 (stereo not shown) [Rebamipide] | −0.22 | Solubility, Ethanol ([1]; 25° C.): 0.06615%; Solubility, Buffer solution ([1]; 25° C., phosphate buffer adjusted to pH 6.0 (rebamipide)): 0.02473%; solubilization of compound due to poloxamer 407 by an addition of PEG 4000 [3]: lowest
16 | 2004388.60 | 7691626.26 | 1186517.97 | 182.78 | 114.87 | CNC(=O)c1cc(Oc2ccc(NC(=O)Nc3ccc(Cl)c(C(F)(F)F)c3)c(F)c2)ccn1 [Regorafenib] | – | Solubility, Buffer solution [1, 7]: 0.0000004174%
17 | 4781694.68 | 7210696.23 | 4473505.75 | 2355.97 | 450.47 | CNC(=O)c1cc(Oc2ccc(NC(=O)Nc3ccc(Cl)c(C(F)(F)F)c3)cc2)ccn1 [Soraf ? nib] | – | –
18 | 287.77 | 431.18 | 120.32 | 2.03 | 1.71 | CCCc1nc2c(C)cc(-c3nc4ccccc4n3C)cc2n1Cc1ccc(-c2ccccc2C(=O)O)cc1 [Telmisartan] | 3.2 | –
19 | 1043.62 | 876.48 | 680.05 | 7.32 | 7.52 | CC1(C)O[C@@H]2C[C@H]3[C@@H]4CCC5=CC(=O)C=C[C@]5(C)[C@@]4(F)[C@@H](O)C[C@]3(C)[C@]2(C(=O)CO)O1 [Triamsinolone acetonide] | – | –
20 | – | – | – | 7.45 | 7.10 | C[C@@H]1C[C@H]2[C@@H]3CCC4=CC(=O)C=C[C@]4(C)[C@@]3(F)[C@@H](O)C[C@]2(C)[C@@]1(O)C(=O)CO [dexamethasone] | – | Solubility, Buffer solution [1, 7]: 0.008221%
